Measured values taken from US20220396569A1 (Carmot Therapeutics, Inc., priority 2021, published 2022).

The compounds below were run against T1, human GLP-1 receptor (Homo sapiens, UniProt P43220) (assay: GLP-1R cAMP Assay (HitHunter cAMP accumulation)). Details: cAMP accumulation, CHO cells stably overexpressing human GLP-1 receptor, 30 min treatment; read-out: EC50.
T1 construct: expressed in transfected cells
Assay type: cell-based
Procedure, shortened: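 CHO cells stably expressing human GLP-1R, 10,000 cells/well in HBSS with 10 mM HEPES and 625 μM IBMX, were mixed with anti-cAMP antibody reagent. Compound was applied as a 20-point dose response in triplicate for 30 min. After lysis and overnight detection, luminescence was read and dose-response curves analysed.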

T1 sequence (P43220 24-463): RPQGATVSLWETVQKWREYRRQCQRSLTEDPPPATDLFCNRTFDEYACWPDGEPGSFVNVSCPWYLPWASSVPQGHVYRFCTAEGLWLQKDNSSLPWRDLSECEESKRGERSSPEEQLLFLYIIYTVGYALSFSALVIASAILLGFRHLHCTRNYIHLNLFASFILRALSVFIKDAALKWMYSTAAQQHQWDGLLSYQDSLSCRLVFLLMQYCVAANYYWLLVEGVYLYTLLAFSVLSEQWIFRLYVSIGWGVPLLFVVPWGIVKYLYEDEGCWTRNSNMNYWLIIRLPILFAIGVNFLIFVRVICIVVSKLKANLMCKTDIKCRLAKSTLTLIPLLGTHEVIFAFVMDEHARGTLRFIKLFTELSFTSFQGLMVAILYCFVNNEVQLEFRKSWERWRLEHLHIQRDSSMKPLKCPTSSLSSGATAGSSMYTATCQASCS

Row | SMILES | EC50 [µM]
1 | N#Cc1ccc(OCc2nc(C34CC3CN(Cc3nc5c(F)cc(C(=O)O)cc5n3C[C@@H]3CCO3)C4)ccc2F)c(Cl)c1 (stereo partly drawn) [Compound 525, 2-[(1-{6-[(2-chloro-4-cyanophenoxy)methyl]-5-fluoropyridin-2-yl}-3-azabicyclo[3.1.0]hexan-3-yl)methyl]-4-fluoro-1-{[(2S)-oxetan-2-yl]methyl}-1H-1,3-benzodiazole-6-carboxylic acid] | < 0.05
2 | N#Cc1ccc(OCc2nc([C@@]34C[C@@H]3CN(Cc3nc5c(F)cc(C(=O)O)cc5n3C[C@@H]3CCO3)C4)ccc2F)c(F)c1 [Compound 531, 2-{[(1S,5S)-1-{6-[(4-cyano-2-fluorophenoxy)methyl]-5-fluoropyridin-2-yl}-3-azabicyclo[3.1.0]hexan-3-yl]methyl}-4-fluoro-1-{[(2S)-oxetan-2-yl]methyl}-1H-1,3-benzodiazole-6-carboxylic acid] | < 0.05
3 | O=C(O)c1ccc2nc(Cc3cc(F)c(Oc4ccnc(COc5ccc(Cl)cc5F)c4)cc3F)n(C[C@@H]3CCO3)c2c1 [Compound 536, (S)-2-(4-((2-((4-Chloro-2-fluorophenoxy)methyl)pyridin-4-yl)oxy)-2,5-difluorobenzyl)-1-(oxetan-2-ylmethyl)-1H-benzo[d]imidazole-6-carboxylic acid] | < 0.05
4 | N#Cc1ccc(OCc2cc(Oc3ccc(Cc4nc5c(F)cc(C(=O)O)cc5n4C[C@@H]4CCO4)c(F)c3)ccn2)c(F)c1 [Compound 537, 2-{[4-({2-[(4-cyano-2-fluorophenoxy)methyl]pyridin-4-yl}oxy)-2-fluorophenyl]methyl}-4-fluoro-1-{[(2S)-oxetan-2-yl]methyl}-1H-1,3-benzodiazole-6-carboxylic acid] | < 0.05
5 | O=C(O)c1cc(F)c2nc(Cc3cc(F)c(Oc4ccnc(COc5ccc(Cl)cc5F)c4)cc3F)n(C[C@@H]3CCO3)c2c1 [Compound 538, 2-{[4-({2-[(4-chloro-2-fluorophenoxy)methyl]pyridin-4-yl}oxy)-2,5-difluorophenyl]methyl}-4-fluoro-1-{[(2S)-oxetan-2-yl]methyl}-1H-1,3-benzodiazole-6-carboxylic acid] | < 0.05

Other lines, results leading:

Row | EC50 [µM] | SMILES
6 | < 0.05 | N#Cc1ccc(OCc2nc(N3CC[C@H](Cc4nc5c(F)cc(C(=O)O)cc5n4C[C@@H]4CCO4)C3)ccc2F)c(F)c1 [Compound 529]
7 | < 0.05 | N#Cc1ccc(OCc2nc(N3CC[C@H](Cc4nc5ccc(C(=O)O)cc5n4C[C@@H]4CCO4)C3)ccc2F)c(F)c1 [Compound 530]
8 | < 0.05 | N#Cc1ccc(OCc2nc([C@]34C[C@H]3CN(Cc3nc5c(F)cc(C(=O)O)cc5n3C[C@@H]3CCO3)C4)ccc2F)c(F)c1 [Compound 532, 2-{[(lR,5R)-1-{6-[(4-cyano-2-fluorophenoxy)methyl]-5-fluoropyridin-2-yl}-3-azabicyclo[3.1.0]hexan-3-yl]methyl}-4-fluoro-1-{[(2S)-oxetan-2-yl]methyl}-1H-1,3-benzodiazole-6-carboxylic acid]
9 | < 0.05 | N#Cc1ccc(OCc2nc(N3CC[C@@H](Cc4nc5ccc(C(=O)O)cc5n4C[C@@H]4CCO4)C3)ccc2F)c(F)c1 [Compound 533, 2-(((S)-1-(6-((4-Cyano-2-fluorophenoxy)methyl)-5-fluoropyridin-2-yl)pyrrolidin-3-yl)methyl)-1-(((S)-oxetan-2-yl)methyl)-1H-benzo[d]imidazole-6-carboxylic acid]
10 | < 0.05 | N#Cc1ccc(OCc2nc(N3CC[C@@H](Cc4nc5c(F)cc(C(=O)O)cc5n4C[C@@H]4CCO4)C3)ccc2F)c(F)c1 [Compound 534]
11 | > 0.5 | N#Cc1ccc(OCc2nc(N3CCN(Cc4nc5ccc(C(=O)O)cc5n4C[C@@H]4CCO4)C3=O)ccc2F)c(F)c1 [Compound 535, (S)-2-((3-(6-((4-Cyano-2-fluorophenoxy)methyl)-5-fluoropyridin-2-yl)-2-oxoimidazolidin-1-yl)methyl)-1-(oxetan-2-ylmethyl)-1H-benzo[d]imidazole-6-carboxylic acid]
